Results as given in patent US20210116454A1, “METHODS FOR TREATING A HEMATOLOGICAL CANCER AND THE USE OF COMPANION BIOMARKERS FOR 2-(2,6-DIOXOPIPERIDIN-3-YL)-4-((2-FLUORO-4-((3-MORPHOLINOAZETIDIN-1-YL)METHYL)BENZYL)AMINO)ISOINDOLINE-1,3-DIONE” (CELGENE CORPORATION, priority 2019, published 2021).
Where two headings read alike, the source gives them in different places.

Assays:
Assay in all cases: 5-day viable cell number and apoptosis (7-AAD exclusion/Annexin V flow cytometry)
Type in all cases: cell-based
WSU-DLCL2 = test system: WSU-DLCL2
In short: (§1)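 DLBCL lines were exposed to increasing compound doses for five days. Viable cell number was then counted, and apoptosis was scored by flow cytometry using 7-AAD exclusion with Annexin V staining.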

U2940 = U2940 cells, 5 days
In short: as §1

Toledo = Toledo cells, 5 days
In short: as §1

SU-DHL-4 = test system: SU-DHL-4
In short: as §1

U2932 = test system: U2932
In short: as §1

KARPAS-422 = test system: KARPAS-422
In short: as §1

SU-DHL-10 = test system: SU-DHL-10
In short: as §1

DB = DB cells, 5 days
In short: as §1

Farage = test system: Farage
In short: as §1

[1] = Homo sapiens, 120 h, SU-DHL-4 cells, 5 days
[2] = Homo sapiens, 120 h, U2932 cells, 5 days
[3] = Homo sapiens, 120 h, KARPAS-422 cells, 5 days
[4] = Homo sapiens, SU-DHL10, 120 h, SU-DHL-10 cells, 5 days

## O=C1CC[C@H](N2C(=O)c3cccc(NCc4ccc(CN5CC(N6CCOCC6)C5)cc4F)c3C2=O)C(=O)N1 [Compound 1, (S)-2-(2,6-dioxopiperidin-3-yl)-4-((2-fluoro-4-((3-morpholinoazetidin-1-yl)methyl)benzyl)amino)isoindoline-1,3-dione]
WSU-DLCL2; Homo sapiens, WSUDLCL2, WSU-DLCL2 cells (Table 3), read-out: IC50
  IC50: 174000 nM
WSU-DLCL2; WSU-DLCL2 cells, 5 days
  % Viable Cells AUC: 173.8
  % Viable Cells Emax: 1.36%
  % Viable Cells Sensitivity: High (highly sensitive to Compound 1 with less than 6% viable cells remaining (Emax) after treatment)
  Apoptosis AUC: 464.5
  Apoptosis Sensitivity: High
U2940; Homo sapiens, U-2940, 120 h
  EC50: 67.9 nM
  Emax: 29%
U2940; Homo sapiens, U-2940, 120 h, read-out: % Viable Cells IC50
  IC50: 35 nM
U2940
  % Viable Cells AUC: 289.1
  % Viable Cells Emax: 29.24%
  % Viable Cells Sensitivity: Intermediate (intermediate sensitivity with 15% to 55% cell viability)
  Apoptosis AUC: 267.4
  Apoptosis Sensitivity: Intermediate
Toledo; Homo sapiens, 120 h
  EC50: 500 nM
  Emax: 14%
Toledo; Homo sapiens, 120 h, read-out: % Viable Cells IC50
  IC50: 500 nM
Toledo
  % Viable Cells AUC: 507
  % Viable Cells Emax: 52.68%
  % Viable Cells Sensitivity: Intermediate (intermediate sensitivity with 15% to 55% cell viability)
  Apoptosis AUC: 114.8
  Apoptosis Sensitivity: Intermediate
SU-DHL-4; [1]
  EC50: 452 nM
  Emax: 18.9%
SU-DHL-4; Homo sapiens, 120 h, SU-DHL-4 cells, 5 days, read-out: % Viable Cells IC50
  IC50: 500 nM
SU-DHL-4; Homo sapiens, SU-DHL-4 cells (Table 3), read-out: IC50
  IC50: 457000 nM
SU-DHL-4; SU-DHL-4 cells, 5 days
  % Viable Cells AUC: 457.4
  % Viable Cells Emax: 41.79%
  % Viable Cells Sensitivity: Intermediate (intermediate sensitivity with 15% to 55% cell viability)
  Apoptosis AUC: 155.2
  Apoptosis Sensitivity: Intermediate
U2932; [2]
  EC50: 11900 nM
  Emax: 69.9%
U2932; Homo sapiens, 120 h, U2932 cells, 5 days, read-out: % Viable Cells IC50
  IC50: 100 nM
U2932; Homo sapiens, U2932 cells (Table 3), read-out: IC50
  IC50: 327000 nM
U2932; U2932 cells, 5 days
  % Viable Cells AUC: 327.1
  % Viable Cells Emax: 24.81%
  % Viable Cells Sensitivity: Intermediate (intermediate sensitivity with 15% to 55% cell viability)
  Apoptosis AUC: 280.5
  Apoptosis Sensitivity: Intermediate
KARPAS-422; [3]
  EC50: 32.5 nM
  Emax: 70.5%
KARPAS-422; Homo sapiens, 120 h, KARPAS-422 cells, 5 days, read-out: % Viable Cells IC50
  IC50: 5.4 nM
KARPAS-422; Homo sapiens, KARPAS-422 cells (Table 3), read-out: IC50
  IC50: 45000 nM
KARPAS-422; KARPAS-422 cells, 5 days
  % Viable Cells AUC: 45.21
  % Viable Cells Emax: 1.584%
  % Viable Cells Sensitivity: High (highly sensitive to Compound 1 with less than 6% viable cells remaining (Emax) after treatment)
  Apoptosis AUC: 682.2
  Apoptosis Sensitivity: High
SU-DHL-10; [4]
  EC50: 16.3 nM
  Emax: 81.9%
SU-DHL-10; Homo sapiens, SU-DHL10, 120 h, SU-DHL-10 cells, 5 days, read-out: % Viable Cells IC50
  IC50: 10 nM
SU-DHL-10; Homo sapiens, SU-DHL10, SU-DHL-10 cells (Table 3), read-out: IC50
  IC50: 3400 nM
SU-DHL-10; SU-DHL-10 cells, 5 days
  % Viable Cells AUC: 3.371
  % Viable Cells Emax: 2.477%
  % Viable Cells Sensitivity: High (highly sensitive to Compound 1 with less than 6% viable cells remaining (Emax) after treatment)
  Apoptosis AUC: 815.3
  Apoptosis Sensitivity: High
DB
  % Viable Cells AUC: 1173
  % Viable Cells Emax: 107.1%
  % Viable Cells Sensitivity: Limited
  Apoptosis AUC: 0
  Apoptosis Sensitivity: Limited
Farage; 120 h, Farage cells, 5 days
  EC50: 73.6 nM
  Emax: 54.2%
Farage; 120 h, Farage cells, 5 days, read-out: % Viable Cells IC50
  IC50: 3.7 nM
Farage; Farage cells (Table 3), read-out: IC50
  IC50: 59000 nM
Farage; Farage cells, 5 days
  % Viable Cells AUC: 59.29
  % Viable Cells Emax: 1.676%
  % Viable Cells Sensitivity: High (highly sensitive to Compound 1 with less than 6% viable cells remaining (Emax) after treatment)
  Apoptosis AUC: 503.6
  Apoptosis Sensitivity: High
